Assay results from PubChem BioAssay AID1508591.

Settings: rat; liver microsomes; pH 7.4; 15.0 min; 1.0 µM

Row | SMILES | half-life [min]
1 | N#Cc1cccc(-c2nccc(-n3ccnc3)n2)c1 | 26
2 | Cc1cccc(-n2ccc(=O)c(C(=O)Nc3ccc(S(=O)(=O)Nc4nccs4)cc3)n2)c1 | > 30
3 | Cc1noc(C)c1C(=O)N1CCC2(CCCN(C(c3ccccc3)c3ccccc3)C2)CC1 | 1.7
4 | C=C1C(=O)O[C@H]2[C@@H]1CCC(C)=CCC[C@@]1(C)O[C@@H]21 | 16.7
5 | O=C(Nc1ccc(S(=O)(=O)N2CCN(Cc3ccccc3)CC2)cc1)c1cnccn1 | 1.8
6 | CCOc1ccc(CCNC(=O)c2cc3ncccc3n2Cc2cccc(C)c2)cc1OCC | 1.9
7 | COC(=O)[C@H](Cc1ccc(O[S+](=O)([O-])c2cccc3cnccc23)cc1)N[S+](=O)([O-])c1ccc2cnccc2c1 | 1
8 | COc1ccc(-c2csc(N3CCC(C(N)=O)CC3)n2)cc1 | 4.68
9 | Fc1ccc(Nc2nc(-c3ccncc3)cc3ccccc23)cc1F | 24
10 | CCN1CCN(CCCOc2ccc(-c3ccccc3)cc2)CC1 | 7.9
11 | CCN(c1ccccc1)S(=O)(=O)c1c(C)nc2scc(C)n2c1=O | 1.7
12 | Oc1ccc(CNc2ccc(F)cc2F)c2cccnc12 | 3.19
13 | Cc1cc(-c2nnc3n2CCCCC3)c(C)n1-c1cccc(Cl)c1 | 1.95
14 | O=S(=O)(Nc1ccc2ccccc2c1)c1ccc(NCc2ccc(Br)cc2O)cc1 | 15
15 | Cc1ccc(S(=O)(=O)Nc2ccccc2C(=O)Nc2ncc(-c3ccccc3)s2)cc1 | 13
16 | O=C(O)c1cn(C2CC2)c2cc(N3C[C@@H]4C[C@H]3CN4)c(F)cc2c1=O | > 30
17 | CC1=C(C(=O)Nc2ccccc2)C(c2ccc[nH]2)n2ncnc2N1 (stereo not drawn) | > 30
18 | CC(Nc1ccc([S+](=O)([O-])Nc2nccs2)cc1)c1ccccc1 (stereo not drawn) | 13
19 | Cc1ccc(-c2cc(C(=O)Nc3ccc(S(=O)(=O)NCc4nccs4)cc3)c3ccccc3n2)cc1C | 5.8
20 | O=C1CCCC2=C1C(c1ccccc1I)N=C(Nc1nc3ccccc3o1)N2 (stereo not drawn) | 8.4
21 | Cc1ccc(S(=O)(=O)Nc2ccccc2C(=O)Nc2ccc(-c3ccccc3)nn2)cc1 | 4
22 | COc1ccc(NC(=O)c2[nH]c(C)c(C(C)=O)c2C)cc1S(=O)(=O)N(C)C | > 30
23 | Cc1cc(C)nc(NC(=S)N2CCN(c3cc(C(F)(F)F)nc4ccc(C(F)(F)F)cc34)CC2)c1 | > 30
24 | CCOP(=O)(Cc1ccc(C(=O)Nc2ccc(Br)cc2C#N)cc1)OCC | > 30
25 | NC(=O)C1CCN(c2ncc(Br)cn2)CC1 | > 30
26 | COc1ncc(-c2ccc3c(Nc4cc(Oc5cc(F)cc(F)c5)cc(C(=O)O)c4)c(S(=O)(=O)NC4CC4)cnc3c2)c(OC)n1 | 9.87

Row | SMILES | half-life [min]
27 | CCOc1ccc(CCNC(=O)c2cc3ccccc3n2Cc2ccc(Cl)c(F)c2)cc1OCC | 1.7
28 | Nc1nc(Nc2ccc(S(N)(=O)=O)cc2)nn1C(=O)c1c(F)cccc1F | > 30
29 | Cn1nnnc1Sc1ncnc2scc(-c3cc4ccccc4o3)c12 | 1.05
30 | CC(C)NC(=O)N1C[C@@H]2C[C@H](C1)c1ccc(-c3cccc(C(F)(F)F)c3)c(=O)n1C2 | 12.5
31 | CC(=O)NC(c1cccs1)c1cc(Br)c2cccnc2c1O (stereo not drawn) | 5.21
32 | Fc1cc(Nc2nc(-c3ccncc3)nc3ccccc23)ccc1N1CCCCC1 | 5.9
33 | COc1ccc(C2C=C(c3ccc(Cl)cc3)Nc3nc(-c4ccc(Cl)cc4)nn32)cc1 (stereo not drawn) | > 30
34 | O=C(c1nc(-c2cccnc2)c2ccccn12)N1CCOCC1 | > 30
35 | CC(C)n1cc(-c2ccc(Oc3ccccc3)cc2)c2c(N)ncnc21 | 18
36 | COc1ccc(-c2cc(-c3cccc4[nH]ncc34)cn3cncc23)cn1 | 9.28
37 | OC[C@H]1O[C@H](O[C@H]2O[C@H](CO)[C@@H](O)[C@H](O)[C@H]2O)[C@H](O)[C@@H](O)[C@@H]1O | > 30
38 | O=C(Nc1ncc(Cc2ccc(C(F)(F)F)cc2)s1)c1ccc(-c2ccccc2)o1 | > 30
39 | COc1ccccc1N1CCN(CCN(C(=O)c2ccc(F)cc2)c2ccccn2)CC1 | 2.02
40 | CN(C)c1cccc(-c2cnc(Nc3cccnc3)c3c2CCO3)c1 | 5.25
41 | O=C1Nc2cc(Cl)ccc2Nc2cscc21 | 21.8
42 | Fc1cccc(CNc2nc(-c3ccccc3C(F)(F)F)nc3ccccc23)c1 | 2.55
43 | COc1cc(-c2ccnc3c2c(C)nn3-c2cccc(C(F)(F)F)c2)ccc1O | > 30
44 | Cc1ccc(S(=O)(=O)N(C)c2ccccc2C(=O)Nc2nc(-c3ccccc3)cs2)cc1 | 1.7
45 | Fc1cccc(Nc2nc(-c3ccncc3)nc3ccccc23)c1F | 11
46 | O=[S+]([O-])(Nc1cccc2ccccc12)c1ccc(NCc2ccc(Cl)cc2O)cc1 | 5.4
47 | COc1cccc(CNc2ccc(S(=O)(=O)Nc3nccs3)cc2)c1N | > 30
48 | CC[C@@H]1C(=O)N(C)c2cnc(Nc3ccc(C(=O)NC4CCN(C)CC4)cc3OC)nc2N1C1CCCC1 | > 30
49 | Cc1ccc(S(=O)(=O)Nc2ccccc2C(=O)Nc2nccs2)cc1 | 1.6
50 | COC(=O)CSc1nc(-c2ccccc2)cc(-c2ccco2)c1C#N | 1
51 | Cc1ccc2oc3c(c(=O)c2c1)C(c1ccc(O)cc1)N(CCCN(C)C)C3=O (stereo not drawn) | > 30
52 | COC(=O)C1=COC(C)C2CN3CCc4c([nH]c5cc(OC)c(OC)cc45)C3CC12 (stereo not drawn) | 26.3

Row | SMILES | half-life [min]
53 | CCCc1c(CC)c(=N)c2ccccc2n1C | > 30
54 | CNC1(c2ccccc2Cl)CCCCC1=O (stereo not drawn) | 4.44
55 | Cn1cc(S(=O)(=O)N2CCOCC2)cc1C(=O)Nc1ccc(Cl)c(C(F)(F)F)c1 | > 30
56 | O=C(Cc1ccc(-c2csc(Nc3ccc(F)cc3)n2)s1)N1CCOCC1 | > 30
57 | CCOC(=O)C1CCN(C(=O)Nc2ccc3c(c2)nc(C)n3C)CC1 | 1
58 | O=C(O)c1ccc(N2C(=O)/C(=C/c3ccc(-c4ccc([N+](=O)[O-])cc4)o3)C=C2c2ccccc2)cc1 | > 30
59 | O=C(Nc1ccc(S(=O)(=O)Nc2nccs2)cc1)c1ccnc2ccccc12 | > 30
60 | CCCCCn1c(=O)[nH]c2cc(C(=O)NCCCN3CCC(C)CC3)ccc2c1=O | 16
61 | O=C(Nc1ccccc1F)c1nc(S(=O)(=O)Cc2ccccc2F)ncc1Cl | 1.49
62 | COc1ccc(-c2noc([C@@H]3Cc4nc[nH]c4CN3C(=O)NC3CCCCC3)n2)cc1 | 6.59
63 | Oc1c(C(Nc2nccs2)c2ccc(C(F)(F)F)cc2)ccc2cccnc12 (stereo not drawn) | 3.54
64 | COc1ccc(-n2c(C)c(C(C)=O)c3ccccc32)cc1 | 2.4
65 | CC(C)(O)CNc1nc(Nc2ccnc(C(F)(F)F)c2)nc(-c2cccc(C(F)(F)F)n2)n1 | > 30
66 | CC(=O)c1ccc(N2CCN(S(=O)(=O)c3ccc4c(c3)n(C)c(=O)n4C)CC2)cc1 | > 30
67 | COc1cc(-c2nc(-c3ccccc3)c(-c3cccs3)[nH]2)cc(OC)c1O | > 30
68 | CCNC(=O)c1noc(-c2cc(C(C)C)c(O)cc2O)c1-c1ccc(CN2CCOCC2)cc1 | 4.7
69 | O=C(O)c1c(Sc2ccccc2)c2cc(Cl)ccc2n1Cc1ccc(Cl)cc1 | 26.6
70 | O=C(Nc1cccc(C(F)(F)F)c1)c1ccccc1NC(=O)C1CCCCC1 | 25
71 | O=c1[nH]c(N2CCOCC2)nc2c1CCN(Cc1cc(Cl)ccc1F)CC2 | > 30
72 | CC(C)c1ccc(Nc2c(-c3ccccn3)nc3ccccn23)cc1 | 2.1
73 | O=S(=O)(Nc1ccc(-c2ccccc2)cc1)c1ccc(NCc2ccc(Br)cc2O)cc1 | 21
74 | N#Cc1ccc(Nc2ncc(-c3cccc4ccccc34)o2)cc1 | > 30
75 | CN(C)CCNC(=O)c1nc2nc(-c3ccccc3)c(-c3cccc(F)c3)cc2n1C | > 30
76 | O=c1c2ccccc2nc(/C=C/c2cccnc2)n1Cc1ccccc1 | 8.99
77 | C#CC1(O)CCC2C3CCC4=C/C(=N/OCC(=O)NCC(=O)NC(C(=O)O)C(C)C)CC[C@]4(C)C3CC[C@@]21C (stereo partly drawn) | > 30
78 | C[C@H]1[C@@H](CCC(=O)Nc2ccc(F)cc2)O[C@@H]2O[C@]3(C)CC[C@@H]4[C@H](C)CC[C@@H]1[C@@]24OO3 | 2

Row | SMILES | half-life [min]
79 | COc1cc(O)c([C@H](CC(=O)N2CC(C)CC(C)C2)c2ccc3c(c2)OCO3)c(OC)c1 (stereo partly drawn) | 3.3
80 | CNc1oc(-c2cccc3ccccc23)nc1C#N | 17.7
81 | CCCCCCOc1ccc(OC(=O)c2ccncc2)cc1 | 2.32
82 | COc1ccc(-c2cc(C)nc3c(-c4ccc(OC)c(OC)c4)c(C)nn23)cc1 | > 30
83 | COCCNC(=O)c1ccc(-c2ncc3cnc(-c4cccc(F)c4)cn23)cc1 | > 30
84 | CC(=O)Nc1ccc(OCc2cn(CC(=O)c3ccc(O)cc3)nn2)cc1 | > 30
85 | COc1cccc(-c2csc(NC(=O)c3ccncc3NS(=O)(=O)c3ccc(C)cc3)n2)c1 | 1.85
86 | COc1cccc(CNc2ccc(S(=O)(=O)Nc3ccc(C)nc3)cc2)c1O | 16
87 | Cn1cc(Cl)c(C2N=C(Nc3nc4ccccc4o3)NC3=C2C(=O)CCC3)n1 (stereo not drawn) | 7.84
88 | CC(C)c1ccccc1-c1ncc(F)c(NCc2ccc(-n3ccnn3)cc2)n1 | 4.4
89 | Fc1ccc(-c2ccc(Nc3nc(-c4ccncc4)nc4ccccc34)cc2F)cc1 | > 30
90 | CCOC(=O)C1CCN(C(=O)C2(NC(=O)Nc3ccccc3Cl)CCCC2)CC1 | 1.5
91 | COc1ccc(-n2nc(C3CCN(C(=O)C4CC4)CC3)[nH]c2=O)cc1 | > 30
92 | CCc1ccccc1Nc1ncnc2c1cnn2-c1ccc(Cl)cc1 | 7.13
93 | O=c1[nH]nc(Sc2ncc([N+](=O)[O-])s2)n1-c1ccc2c(c1)OCCO2 | 1.02
94 | Cc1cnc(-c2ccccc2C2COC2)nc1NCc1ccc(-n2ccnn2)cc1 | > 30
95 | CCN(CC)[S+](=O)([O-])c1cc(NC(=O)c2[nH]c(C)c(C(C)=O)c2C)ccc1OC | 4.7
96 | Cn1nnnc1Sc1ncnc2sccc12 | > 30
97 | Cc1ccc(S(=O)(=O)Nc2ccccc2CNc2nc(-c3ccccc3)cs2)cc1 | 1.6
98 | CC(Cc1ccc(O)cc1)NCC(O)c1cc(O)cc(O)c1 (stereo not drawn) | > 30
99 | CCOC(=O)c1ccnc(CNCC(=O)N(CC)CCN(C)C)c1 | > 30
100 | C[C@@H]1CC(=O)Nc2cccc(-c3cnn(C(C)(C)C)c3)c2N1 | > 30
101 | CCCN1CNc2c(c(=O)[nH]c(=S)n2CCc2cccc(Cl)c2Cl)C1 | 2.47
102 | O=C1CCC(CNC(=O)c2nc(-c3ccccc3)cc3[nH]ccc23)N1 (stereo not drawn) | > 30
103 | CCC[C@@H]1CN(C(=O)c2ccc(-c3ccc(C)o3)cc2)C[C@H]1NC(C)=O | 13.2
